Reference: patent US20100093993A1 (priority 2007, published 2010)

Legend:
[1] = system: intraperitoneal macrophage cells of a mouse; assay: Measurement of macrophage activity: nitrite ion concentration (NO release, Griess reagent); assay type: cell-based; settings: test compound 50 μM; for Nitrite Ion Concentration Relative Value: relative to TDCM = 1.0, 48 hours; for Nitrite Ion Concentration Actual Value: cultured 48 hours, mouse peritoneal macrophages, mean ± S.E.
Method: Macrophage activation indicates the condition wherein the adhesion to the tissue and the motility of the macrophages are improved, so that bacteria entering from outside or denatured self-components are phagocytized. Macrophage activity can be measured using the release of cytokine or active oxygen as an index. In Experimental Example 1 below, the macrophage activation ability was measured using the nitrite ion concentration as an index.
The present experiment was conducted with reference to the method described in Sakurai T., Kaise T., Matsubara C. Chem. Res. Toxicol. 1998, 11, 273-283. Specifically, ICR male mice (6 to 7 weeks old) were anesthetized, a phosphate buffer containing 0.05% EDTA was injected intraperitoneally, an intraperitoneal lavage was performed, and a peritoneal macrophage was aseptically recovered. After the cells were washed with an RPMI-1640 medium (containing 10% bovine fetal serum), the macrophage cells were inoculated so that there were 1×10^5 cells/100 μl in each well of the 96-well plate. After being pre-incubated for 2 hours, the test compound (50 μM) was added to the culture medium, and cultured for 48 hours. Afterwards, a Griess test reagent was added to the culture medium, which was allowed to stand for 10 minutes; the absorbency thereof was measured with a microplate reader (filter: 550/630 nm), after which the nitrite ion concentration (NO2^−) was determined from a calibration curve. The reproducibility of the above-described test was confirmed by 3 wells, the experiment was repeated at least three times using different mice, and the mean values ±S.E. were determined.

[2] = system: Clostridium perfringens (Type A NTCT8237); assay type: in vivo, ICR mice; settings: emulsion solution 100 mg/mouse, 3 hours before C. perfringens 2.4×10^7 cells/mouse
[3] = system: rabbit neutrophil; assay: Influence on rabbit neutrophil H2O2 production (H2DCFDA fluorescence); assay type: cell-based; settings: 2 hours at 37° C., rabbit neutrophils
Method: The neutrophils (1.0×10^5 cells/100 μl) were inoculated in a 96-well plate (Falcon).

[4] = system: rabbit neutrophil; assay: Influence on the phagocytic action of neutrophils (opsonized ampicillin resistant E. coli, colony count); settings: neutrophils treated 1 hour, then opsonized E. coli 1 hour

SMILES | Nitrite Ion Concentration Relative Value [1] | Nitrite Ion Concentration Actual Value [1] | The number surviving/Administered group After 2 hr [2] | The number surviving/Administered group After 6 hr [2] | The number surviving/Administered group After 12 hr [2] | The number surviving/Administered group After 24 hr [2] | The number surviving/Administered group after 48 hr [2] | H2O2 production ([3]; 50 μM) | H2O2 production ([3]; 100 μM) | The number of colonies ([4]; 50 μM) | The number of colonies ([4]; 100 μM)
CCCCCCCCCCC(CCCCCCCCCC)C(=O)NCC1O[C@H](O[C@H]2OC(CNC(=O)C(CCCCCCCCCC)CCCCCCCCCC)[C@@H](O)C(O)C2O)C(O)C(O)[C@@H]1O (stereo partly drawn) [Ex. 1, 6,6′-bis-N-(2-decyldodecanoylamino)-6,6′-dideoxy-α,α′-trehalose] | 0.4 | 200 ± 133 nM | 4/4 | 4/4 | 4/4 | 4/4 | 4/4 | 0.33 ± 0.05 nmol/10^5 Cells | 0.38 ± 0.05 nmol/10^5 Cells | 250 ± 11 | 487 ± 20
CCCCCCCCCCCC(CCCCCCCCCCC)C(=O)NCC1O[C@H](O[C@H]2OC(CNC(=O)C(CCCCCCCCCCC)CCCCCCCCCCC)[C@@H](O)C(O)C2O)C(O)C(O)[C@@H]1O (stereo partly drawn) [Ex. 2, 6,6′-bis-N-(2-undecyltridecanoylamino)-6,6′-dideoxy-α,α′-trehalose] | 3.9 | 1973 ± 973 nM | – | – | – | – | – | 0.25 ± 0.02 nmol/10^5 Cells | 0.26 ± 0.02 nmol/10^5 Cells | 89 ± 21 | 172 ± 13
CCCCCCCCCCCCC(CCCCCCCCCCCC)C(=O)NCC1O[C@H](O[C@H]2OC(CNC(=O)C(CCCCCCCCCCCC)CCCCCCCCCCCC)[C@@H](O)C(O)C2O)C(O)C(O)[C@@H]1O (stereo partly drawn) [Ex. 3, 6,6′-bis-N-(2-dodecyltetradecanoylamino)-6,6′-dideoxy-α,α′-trehalose] | 2.4 | 1202 ± 647 nM | – | – | – | – | – | 0.18 ± 0.03 nmol/10^5 Cells | 0.20 ± 0.03 nmol/10^5 Cells | 58 ± 9 | 112 ± 15
CCCCCCCCCCCCCC(CCCCCCCCCCCCC)C(=O)NCC1O[C@H](O[C@H]2OC(CNC(=O)C(CCCCCCCCCCCCC)CCCCCCCCCCCCC)[C@@H](O)C(O)C2O)C(O)C(O)[C@@H]1O (stereo partly drawn) [Ex. 4, 6,6′-bis-N-(2-tridecylpentadecanoylamino)-6,6′-dideoxy-α,α′-trehalose] | 7.6 | 3676 ± 385 nM | 4/4 | 4/4 | 4/4 | 4/4 | 4/4 | 0.15 ± 0.02 nmol/10^5 Cells | 0.18 ± 0.02 nmol/10^5 Cells | 200 ± 15 | 350 ± 30
CCCCCCCCCCCCCCC(CCCCCCCCCCCCCC)C(=O)NCC1O[C@H](O[C@H]2OC(CNC(=O)C(CCCCCCCCCCCCCC)CCCCCCCCCCCCCC)[C@@H](O)C(O)C2O)C(O)C(O)[C@@H]1O (stereo partly drawn) [Ex. 5, 6,6′-bis-N-(2-tetradecylhexadecanoylamino)-6,6′-dideoxy-α,α′-trehalose] | 8.8 | 4419 ± 4250 nM | 4/4 | 4/4 | 4/4 | 4/4 | 4/4 | 0.26 ± 0.04 nmol/10^5 Cells | 0.29 ± 0.04 nmol/10^5 Cells | 250 ± 16 | 450 ± 31
CCCCCCCCCCCCCCCC(CCCCCCCCCCCCCCC)C(=O)NCC1O[C@H](O[C@H]2OC(CNC(=O)C(CCCCCCCCCCCCCCC)CCCCCCCCCCCCCCC)[C@@H](O)C(O)C2O)C(O)C(O)[C@@H]1O (stereo partly drawn) [Ex. 6, 6,6′-bis-N-(2-pentadecylheptadecanoylamino)-6,6′-dideoxy-α,α′-trehalose] | 1.7 | 851 ± 608 nM | – | – | – | – | – | 0.11 ± 0.03 nmol/10^5 Cells | 0.16 ± 0.03 nmol/10^5 Cells | 120 ± 11 | 220 ± 12
CCCCCCCCCCCCCCCCC(CCCCCCCCCCCCCCCC)C(=O)NCC1O[C@H](O[C@H]2OC(CNC(=O)C(CCCCCCCCCCCCCCCC)CCCCCCCCCCCCCCCC)[C@@H](O)C(O)C2O)C(O)C(O)[C@@H]1O (stereo partly drawn) [Ex. 7, 6,6′-bis-N-(2-hexadecyloctadecanoylamino)-6,6′-dideoxy-α,α′-trehalose] | 0.6 | 300 ± 229 nM | – | – | – | – | – | 0.10 ± 0.03 nmol/10^5 Cells | 0.15 ± 0.02 nmol/10^5 Cells | 110 ± 7 | 200 ± 8
CCCCCCCCCCCCCCC[C@@H](O)[C@@H](CCCCCCCCCCCCCC)C(=O)OCC1O[C@H](O[C@H]2OC(COC(=O)[C@H](CCCCCCCCCCCCCC)[C@H](O)CCCCCCCCCCCCCCC)[C@@H](O)[C@H](O)C2O)C(O)[C@@H](O)[C@@H]1O (some centres unmarked) [TDCM, trehalose 6,6′-dicorynomycolate, reference compound] | 1.0 | 500 ± 271 nM | 4/4 | 4/4 | 4/4 | 4/4 | 4/4 | 0.18 ± 0.02 nmol/10^5 Cells | 0.21 ± 0.02 nmol/10^5 Cells | 50 ± 10 | 87 ± 10
